Reference: patent publication US8637499B2, “Benzoxazepines as inhibitors of PI3K/mTOR and methods of their use and manufacture” (Exelixis, Inc., priority 2009, dated 2014)
Read-outs that look alike come from different tables or passages of the source.

What was measured:
mTORC1 (mTOR/GbL/Raptor) = mTORC1 (mTOR/GbL/Raptor) (Homo sapiens, UniProt P42345); test: mTOR/GbL/Raptor (mTORC1) ELISA Assay; format: biochemical; settings: 0.2 nM mTORC1, 10 μM ATP, 50 nM NHis-tagged 4E-BP1, phosphorylation of 4E-BP1
Method in brief: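 Detection used Ni-chelate capture of His-tagged 4E-BP1, then anti-phospho-4E-BP1 and HRP anti-IgG with luminescent ELISA substrate. Reactions ran 120 min at ambient temperature with 0.2 nM mTORC1, 10 μM ATP, 50 nM 4E-BP1, 10 mM MnCl2, pH 7.2 Hepes.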

PI3Kα = PI3Kα (Homo sapiens, UniProt P42336); test: PI3K Biochemical Assays (ATP consumption, luciferase-luciferin chemiluminescence); settings: PI3Kα 1.5 nM, ATP 1 μM, PIP2 10 μM; percent of ATP consumed
Method in brief: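 Enzyme (1.5 nM), PIP2 substrate (10 μM) and ATP (1 μM) react about 2 h at room temperature in Tris buffer pH 7.5 with MgCl2, EGTA, DTT and CHAPS. Remaining ATP detected by Kinase-Glo luminescence; total consumption limited to 40-60%.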

Sequence of PI3Kα (P42336 whole entry): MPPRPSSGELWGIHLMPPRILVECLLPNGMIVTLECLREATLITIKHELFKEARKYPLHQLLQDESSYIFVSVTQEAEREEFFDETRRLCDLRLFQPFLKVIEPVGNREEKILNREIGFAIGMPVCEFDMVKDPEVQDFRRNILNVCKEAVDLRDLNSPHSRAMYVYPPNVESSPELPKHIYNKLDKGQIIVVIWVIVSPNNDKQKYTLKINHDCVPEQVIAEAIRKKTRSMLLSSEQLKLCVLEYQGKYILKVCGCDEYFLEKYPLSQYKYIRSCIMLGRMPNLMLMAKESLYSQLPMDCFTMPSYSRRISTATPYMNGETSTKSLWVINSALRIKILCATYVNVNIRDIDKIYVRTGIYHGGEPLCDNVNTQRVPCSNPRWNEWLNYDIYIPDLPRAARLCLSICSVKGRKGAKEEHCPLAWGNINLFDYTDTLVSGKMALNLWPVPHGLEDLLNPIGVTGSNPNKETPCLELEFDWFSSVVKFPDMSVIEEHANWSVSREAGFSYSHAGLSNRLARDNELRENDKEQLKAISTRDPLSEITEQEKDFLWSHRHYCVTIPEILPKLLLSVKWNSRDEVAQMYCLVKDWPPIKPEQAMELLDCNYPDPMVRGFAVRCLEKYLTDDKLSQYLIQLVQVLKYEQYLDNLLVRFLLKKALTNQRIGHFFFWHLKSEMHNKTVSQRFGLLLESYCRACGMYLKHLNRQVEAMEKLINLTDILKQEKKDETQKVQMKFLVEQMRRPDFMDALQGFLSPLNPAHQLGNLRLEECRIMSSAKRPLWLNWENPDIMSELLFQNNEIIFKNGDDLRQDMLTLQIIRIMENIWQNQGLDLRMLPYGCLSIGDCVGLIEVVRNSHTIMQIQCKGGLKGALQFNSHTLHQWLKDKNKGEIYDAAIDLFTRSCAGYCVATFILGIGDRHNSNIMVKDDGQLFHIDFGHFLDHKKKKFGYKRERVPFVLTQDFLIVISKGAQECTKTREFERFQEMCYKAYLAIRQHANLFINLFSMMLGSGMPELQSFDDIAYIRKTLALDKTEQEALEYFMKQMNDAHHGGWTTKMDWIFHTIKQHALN
Sequence of PI3Kα (P27986 whole entry partner): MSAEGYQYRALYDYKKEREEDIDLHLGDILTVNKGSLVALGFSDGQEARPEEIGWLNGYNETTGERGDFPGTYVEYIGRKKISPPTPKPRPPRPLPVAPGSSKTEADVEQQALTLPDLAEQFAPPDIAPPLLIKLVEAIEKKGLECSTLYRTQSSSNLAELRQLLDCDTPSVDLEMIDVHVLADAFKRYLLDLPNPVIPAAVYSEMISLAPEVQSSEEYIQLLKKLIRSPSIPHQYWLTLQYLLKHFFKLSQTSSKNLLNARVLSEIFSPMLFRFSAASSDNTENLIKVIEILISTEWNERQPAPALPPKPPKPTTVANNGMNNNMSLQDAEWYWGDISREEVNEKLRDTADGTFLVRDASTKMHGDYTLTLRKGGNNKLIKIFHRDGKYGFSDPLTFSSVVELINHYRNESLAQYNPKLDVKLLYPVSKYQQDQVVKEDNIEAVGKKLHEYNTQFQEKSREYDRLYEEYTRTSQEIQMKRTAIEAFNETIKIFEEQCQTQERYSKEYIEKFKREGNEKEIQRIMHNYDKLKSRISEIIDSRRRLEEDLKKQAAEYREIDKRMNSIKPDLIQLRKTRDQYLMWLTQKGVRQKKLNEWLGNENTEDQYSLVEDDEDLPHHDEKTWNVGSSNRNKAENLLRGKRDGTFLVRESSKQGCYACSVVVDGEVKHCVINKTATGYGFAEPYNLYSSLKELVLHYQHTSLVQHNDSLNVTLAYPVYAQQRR

Structure (SMILES)	IC50 (mTORC1 (mTOR/GbL/Raptor); read-out: IC50)	IC50 (PI3Kα)	IC50 (mTORC1 (mTOR/GbL/Raptor))
Cc1nc2ccc(-c3ccc4c(c3)CN(C(=O)N3CCCC(Cc5ccccc5)C3)CCO4)cc2[nH]1 (stereo not shown) [Compound 106, 7-(2-methyl-1H-benzimidazol-6-yl)-4-{[3-(phenylmethyl)piperidin-1-yl]carbonyl}-2,3,4,5-tetrahydro-1,4-benzoxazepine]	250 to 700 nM	1000 to 3000 nM	
Cc1nc2ccc(-c3ccc4c(c3)CN(C(=O)N(C)Cc3ccccc3)CCO4)cc2[nH]1 [Compound 92, N-methyl-7-(2-methyl-1H-benzimidazol-6-yl)-N-(phenylmethyl)-2,3-dihydro-1,4-benzoxazepine-4(5H)-carboxamide]	50 to 250 nM	500 to 1000 nM	
Cc1nc2ccc(-c3ccc4c(c3)CN(C(=O)N3CCCCC3c3ccc(F)c(C)c3)CCO4)cc2[nH]1 (stereo not shown) [Compound 118, 4-{[2-(4-fluoro-3-methylphenyl)piperidin-1-yl]carbonyl}-7-(2-methyl-1H-benzimidazol-6-yl)-2,3,4,5-tetrahydro-1,4-benzoxazepine]	≤ 50 nM	75 to 200 nM	
COC(=O)Nc1nc2ncc(-c3ccc4c(c3)CN(C(=O)N3CCC(CF)CC3)CCO4)cc2[nH]1 [Compound 36, methyl [6-(4-{[4-(fluoromethyl)piperidin-1-yl]carbonyl}-2,3,4,5-tetrahydro-1,4-benzoxazepin-7-yl)-1H-imidazo[4,5-b]pyridin-2-yl]carbamate]	≤ 50 nM	≤ 75 nM	
Cc1nc2ccc(-c3ccc4c(c3)CN(C(=O)N3CCC(O)CC3)CCO4)cc2[nH]1 [Compound 68, 1-{[7-(2-methyl-1H-benzimidazol-6-yl)-2,3-dihydro-1,4-benzoxazepin-4(5H)-yl]carbonyl}piperidin-4-ol]	250 to 700 nM	1000 to 3000 nM	
CCN(Cc1ccccc1)C(=O)N1CCOc2ccc(-c3ccc4nc(C)[nH]c4c3)cc2C1 [Compound 177, N-ethyl-7-(2-methyl-1H-benzimidazol-6-yl)-N-(phenylmethyl)-2,3-dihydro-1,4-benzoxazepine-4(5H)-carboxamide]	50 to 250 nM	200 to 500 nM	
Cc1nc2ccc(-c3ccc4c(c3)CN(C(=O)N3CC[C@@H]5CCCC[C@H]5C3)CCO4)cc2[nH]1 (racemic) [Compound 80, (±)-7-(2-methyl-1H-benzimidazol-6-yl)-4-[(4aS,8aR)-octahydroisoquinolin-2(1H)-ylcarbonyl]-2,3,4,5-tetrahydro-1,4-benzoxazepine]	250 to 700 nM	1000 to 3000 nM	
Cc1nc2ccc(-c3ccc4c(c3)CN(C(=O)N3CC5CCCC5C3)CCO4)cc2[nH]1 (stereo not shown) [Compound 84, 4-(hexahydrocyclopenta[c]pyrrol-2(1H)-ylcarbonyl)-7-(2-methyl-1H-benzimidazol-6-yl)-2,3,4,5-tetrahydro-1,4-benzoxazepine]	50 to 250 nM	200 to 500 nM	
Cc1nc2ccc(-c3ccc4c(c3)CN(C(=O)N3CCCCC3c3ccccc3)CCO4)cc2[nH]1 (stereo not shown) [Compound 96, 7-(2-methyl-1H-benzimidazol-6-yl)-4-[(2-phenylpiperidin-1-yl)carbonyl]-2,3,4,5-tetrahydro-1,4-benzoxazepine]	≤ 50 nM	75 to 200 nM	
Cc1nc2ccc(-c3ccc4c(c3)CN(C(=O)N3CCCCC3c3cccc(C(F)(F)F)c3)CCO4)cc2[nH]1 (stereo not shown) [Compound 127, 7-(2-methyl-1H-benzimidazol-6-yl)-4-({2-[3-(trifluoromethyl)phenyl]piperidin-1-yl}carbonyl)-2,3,4,5-tetrahydro-1,4-benzoxazepine]	250 to 700 nM	200 to 500 nM	
Cc1ccc(OCC2CN(C(=O)N3CCOc4ccc(-c5ccc6nc(C)[nH]c6c5)cc4C3)CCO2)cc1 (stereo not shown) [Compound 154, 7-(2-methyl-1H-benzimidazol-6-yl)-4-[(2-{[(4-methylphenyl)oxy]methyl}morpholin-4-yl)carbonyl]-2,3,4,5-tetrahydro-1,4-benzoxazepine]	700 to 2600 nM	1000 to 3000 nM	
COC(=O)Nc1nc2ccc(-c3ccc4c(c3)CN(C(=O)N3CCC(C(F)F)CC3)CCO4)cc2[nH]1 [Compound 19, methyl [6-(4-{[4-(difluoromethyl)piperidin-1-yl]carbonyl}-2,3,4,5-tetrahydro-1,4-benzoxazepin-7-yl)-1H-benzimidazol-2-yl]carbamate]	50 to 250 nM	200 to 500 nM	
Cc1nc2ccc(-c3ccc4c(c3)CN(C(=O)N3CCCc5ccccc53)CCO4)cc2[nH]1 [Compound 85, 4-(3,4-dihydroquinolin-1(2H)-ylcarbonyl)-7-(2-methyl-1H-benzimidazol-6-yl)-2,3,4,5-tetrahydro-1,4-benzoxazepine]	50 to 250 nM	1000 to 3000 nM	
Nc1nc2ncc(-c3ccc4c(c3)CN(C(=O)N3CCC(=O)CC3c3cccc(F)c3)CCO4)cc2[nH]1 (stereo not shown) [Compound 48, 1-{[7-(2-amino-1H-imidazo[4,5-b]pyridin-6-yl)-2,3-dihydro-1,4-benzoxazepin-4(5H)-yl]carbonyl}-2-(3-fluorophenyl)piperidin-4-one]	≤ 50 nM	≤ 75 nM	
Cc1nc2ccc(-c3ccc4c(c3)CN(C(=O)N3CC[C@H](O)C[C@@H]3c3ccc(F)cc3)CCO4)cc2[nH]1 (racemic) [Compound 136, (±)-(2R,4S)-2-(4-fluorophenyl)-1-{[7-(2-methyl-1H-benzimidazol-6-yl)-2,3-dihydro-1,4-benzoxazepin-4(5H)-yl]carbonyl}piperidin-4-ol]	50 to 250 nM	500 to 1000 nM	
CC(F)(F)C1CCN(C(=O)N2CCOc3ccc(-c4cnc5nc(N)[nH]c5c4)cc3C2)CC1 [Compound 42, 6-(4-{[4-(1,1-difluoroethyl)piperidin-1-yl]carbonyl}-2,3,4,5-tetrahydro-1,4-benzoxazepin-7-yl)-1H-imidazo[4,5-b]pyridin-2-amine]	≤ 50 nM	≤ 75 nM	
COC(=O)Nc1nc2ccc(-c3ccc4c(c3)CN(C(=O)N3CCC(C)(O)CC3)CCO4)cc2[nH]1 [Compound 24, methyl (6-{4-[(4-hydroxy-4-methylpiperidin-1-yl)carbonyl]-2,3,4,5-tetrahydro-1,4-benzoxazepin-7-yl}-1H-benzimidazol-2-yl)carbamate]	250 to 700 nM	200 to 500 nM	
COC(=O)Nc1nc2ncc(-c3ccc4c(c3)CN(C(=O)N3CCC(=O)CC3c3ccc(F)c(F)c3)CCO4)cc2[nH]1 (stereo not shown) [Compound 39, methyl [6-(4-{[2-(3,4-difluorophenyl)-4-oxopiperidin-1-yl]carbonyl}-2,3,4,5-tetrahydro-1,4-benzoxazepin-7-yl)-1H-imidazo[4,5-b]pyridin-2-yl]carbamate]	50 to 250 nM	≤ 75 nM	
Cc1cccc(CN(C)C(=O)N2CCOc3ccc(-c4ccc5nc(C)[nH]c5c4)cc3C2)c1 [Compound 153, N-methyl-7-(2-methyl-1H-benzimidazol-6-yl)-N-[(3-methylphenyl)methyl]-2,3-dihydro-1,4-benzoxazepine-4(5H)-carboxamide]	250 to 700 nM	1000 to 3000 nM	
N#CC1CCN(C(=O)N2CCOc3ccc(-c4cnc5nc(N)[nH]c5c4)cc3C2)CC1 [Compound 46, 1-{[7-(2-amino-1H-imidazo[4,5-b]pyridin-6-yl)-2,3-dihydro-1,4-benzoxazepin-4(5H)-yl]carbonyl}piperidine-4-carbonitrile]	≤ 50 nM	≤ 75 nM	
O=C1CCN(C(=O)N2CCOc3ccc(-c4ccc5[nH]c(NCCF)nc5c4)cc3C2)C(c2cccc(F)c2)C1 (stereo not shown) [Compound 32, 1-{[7-{2-[(2-fluoroethyl)amino]-1H-benzimidazol-5-yl}-2,3-dihydro-1,4-benzoxazepin-4(5H)-yl]carbonyl}-2-(3-fluorophenyl)piperidin-4-one]	≤ 50 nM	≤ 75 nM	
Cc1nc2ccc(-c3ccc4c(c3)CN(C(=O)N3CCN(c5ccc(C(F)(F)F)cn5)CC3)CCO4)cc2[nH]1 [Compound 150, 7-(2-methyl-1H-benzimidazol-6-yl)-4-({4-[5-(trifluoromethyl)pyridin-2-yl]piperazin-1-yl}carbonyl)-2,3,4,5-tetrahydro-1,4-benzoxazepine]		500 to 1000 nM	not active
COC(=O)Nc1nc2ccc(-c3ccc4c(c3)CN(C(=O)N3CCCCC3c3ccc(F)cc3)CCO4)cc2[nH]1 (stereo not shown) [Compound 12, methyl [6-(4-{[2-(4-fluorophenyl)piperidin-1-yl]carbonyl}-2,3,4,5-tetrahydro-1,4-benzoxazepin-7-yl)-1H-benzimidazol-2-yl]carbamate]	50 to 250 nM	≤ 75 nM	
Cc1nc2ccc(-c3ccc4c(c3)CN(C(=O)N3CC[C@H](O)C[C@@H]3c3ccc(F)c(F)c3)CCO4)cc2[nH]1 (racemic) [Compound 140, (±)-(2R,4S)-2-(3,4-difluorophenyl)-1-{[7-(2-methyl-1H-benzimidazol-6-yl)-2,3-dihydro-1,4-benzoxazepin-4(5H)-yl]carbonyl}piperidin-4-ol]	50 to 250 nM	200 to 500 nM	
COC(=O)Nc1nc2ccc(-c3ccc4c(c3)CN(C(=O)N3CCC(CF)CC3)CCO4)cc2[nH]1 [Compound 13, methyl [6-(4-{[4-(fluoromethyl)piperidin-1-yl]carbonyl}-2,3,4,5-tetrahydro-1,4-benzoxazepin-7-yl)-1H-benzimidazol-2-yl]carbamate]	50 to 250 nM	75 to 200 nM	
COC(=O)Nc1nc2ccc(-c3ccc4c(c3)CN(C(=O)N3CCC(O)(c5cccc(C(F)(F)F)c5)CC3)CCO4)cc2[nH]1 [Compound 18, methyl {6-[4-({4-hydroxy-4-[3-(trifluoromethyl)phenyl]piperidin-1-yl}carbonyl)-2,3,4,5-tetrahydro-1,4-benzoxazepin-7-yl]-1H-benzimidazol-2-yl}carbamate]	50 to 250 nM	≤ 75 nM	
